From patent US20210038607A1, “OXADIAZOLYLTHIOPHENE DERIVATIVES USEFUL AS HISTONE DEACETYLASE INHIBITORS” (Karus Therapeutics Limited, priority 2018, published 2021)

Legend:
Human HDAC1 = target: T1, Human HDAC1 (Homo sapiens, UniProt Q13547); experiment: HDAC1 biochemical assay, AMC-labeled peptide substrate; conditions: read-out: HDAC Isoform IC50 (nM) 1
T1 construct: full length with C-terminal His-tag and C-terminal FLAG-tag; His (C); FLAG (C); host or cells: baculovirus expression system
Procedure, shortened: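 Baculovirus-expressed full-length human HDAC1 with His and FLAG tags, 0.3 ng/ul, incubated 1 h at 30° C with compound and 50 μM RHKK(Ac)AMC in Tris pH 8.0 buffer with BSA and 1% DMSO. Developer then releases AMC from deacetylated substrate; fluorescence read at 360/460 nm.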

Human HDAC4 = target: T2, Human HDAC4 (Homo sapiens, UniProt P56524); experiment: HDAC4 biochemical assay, class IIa-specific substrate; conditions: read-out: HDAC Isoform IC50 (nM) 4
T2 construct: amino acids 627-1085 with N-terminal GST tag; GST (N); host or cells: baculovirus expression system
T2 sequence (P56524 627-1084 limits assumed): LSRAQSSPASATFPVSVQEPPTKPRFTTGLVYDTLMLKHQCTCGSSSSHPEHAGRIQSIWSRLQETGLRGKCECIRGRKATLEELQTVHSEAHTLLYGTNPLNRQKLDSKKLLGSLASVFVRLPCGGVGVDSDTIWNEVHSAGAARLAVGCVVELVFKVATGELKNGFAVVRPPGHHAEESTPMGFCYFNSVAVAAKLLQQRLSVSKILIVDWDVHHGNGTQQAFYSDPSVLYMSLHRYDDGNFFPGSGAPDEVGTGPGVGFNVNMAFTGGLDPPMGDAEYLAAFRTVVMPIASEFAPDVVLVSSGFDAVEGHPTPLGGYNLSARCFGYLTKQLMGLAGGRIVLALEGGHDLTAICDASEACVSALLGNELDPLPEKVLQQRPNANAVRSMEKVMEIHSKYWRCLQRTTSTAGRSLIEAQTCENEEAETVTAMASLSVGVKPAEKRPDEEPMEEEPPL
Procedure, shortened: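 GST-tagged human HDAC4 (aa 627-1085, baculovirus) at 0.004 ng/ul was incubated 30 min at room temperature with 50 μM class IIa-specific substrate BOC-Lys(trifluoroacetyl)-AMC in Tris-HCl pH 8.0 buffer with BSA, 1% DMSO. Developer then released AMC, read at 360/460 nm.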

Human HDAC5 = target: T3, Human HDAC5 (Homo sapiens, UniProt Q9UQL6); experiment: HDAC5 biochemical assay, class IIa-specific substrate; conditions: read-out: HDAC Isoform IC50 (nM) 5
T3 construct: full length with C-terminal His tag, MW=51.1 kDa; His (C); host or cells: baculovirus expression system
T3 sequence (Q9UQL6 656-1122 limits assumed): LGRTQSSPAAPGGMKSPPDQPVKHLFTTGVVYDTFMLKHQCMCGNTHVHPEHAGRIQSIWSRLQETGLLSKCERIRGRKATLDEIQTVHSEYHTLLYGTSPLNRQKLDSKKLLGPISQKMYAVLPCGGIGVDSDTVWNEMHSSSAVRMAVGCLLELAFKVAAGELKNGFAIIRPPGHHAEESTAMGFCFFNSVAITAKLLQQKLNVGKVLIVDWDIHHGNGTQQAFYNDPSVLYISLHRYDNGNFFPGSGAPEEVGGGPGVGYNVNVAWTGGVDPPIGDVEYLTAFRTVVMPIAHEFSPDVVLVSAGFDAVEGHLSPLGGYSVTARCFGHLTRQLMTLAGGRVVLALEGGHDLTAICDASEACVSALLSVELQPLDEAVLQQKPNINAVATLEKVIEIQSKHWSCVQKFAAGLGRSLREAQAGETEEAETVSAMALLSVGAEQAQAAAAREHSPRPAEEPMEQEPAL
Procedure, shortened: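 Full-length C-terminal His-tagged HDAC5 from baculovirus (0.05 ng/ul) incubated 30 min at room temperature with 50 μM Boc-Lys(trifluoroacetyl)-AMC and compound, Tris pH 8.0 buffer with BSA, 1% DMSO. Developer then releases AMC; fluorescence 360/460 nm.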

Recombinant human HDAC6 = target: T4, Recombinant human HDAC6 (Homo sapiens, UniProt Q9UBN7); experiment: HDAC6 biochemical assay, AMC-labeled peptide substrate; conditions: HDAC6; read-out: HDAC Isoform IC50 (nM) 6
T4 construct: full length, MW=159 kDa; GST (N); host or cells: Sf9 insect cells (baculovirus)
T4 sequence (Q9UBN7 1-1215): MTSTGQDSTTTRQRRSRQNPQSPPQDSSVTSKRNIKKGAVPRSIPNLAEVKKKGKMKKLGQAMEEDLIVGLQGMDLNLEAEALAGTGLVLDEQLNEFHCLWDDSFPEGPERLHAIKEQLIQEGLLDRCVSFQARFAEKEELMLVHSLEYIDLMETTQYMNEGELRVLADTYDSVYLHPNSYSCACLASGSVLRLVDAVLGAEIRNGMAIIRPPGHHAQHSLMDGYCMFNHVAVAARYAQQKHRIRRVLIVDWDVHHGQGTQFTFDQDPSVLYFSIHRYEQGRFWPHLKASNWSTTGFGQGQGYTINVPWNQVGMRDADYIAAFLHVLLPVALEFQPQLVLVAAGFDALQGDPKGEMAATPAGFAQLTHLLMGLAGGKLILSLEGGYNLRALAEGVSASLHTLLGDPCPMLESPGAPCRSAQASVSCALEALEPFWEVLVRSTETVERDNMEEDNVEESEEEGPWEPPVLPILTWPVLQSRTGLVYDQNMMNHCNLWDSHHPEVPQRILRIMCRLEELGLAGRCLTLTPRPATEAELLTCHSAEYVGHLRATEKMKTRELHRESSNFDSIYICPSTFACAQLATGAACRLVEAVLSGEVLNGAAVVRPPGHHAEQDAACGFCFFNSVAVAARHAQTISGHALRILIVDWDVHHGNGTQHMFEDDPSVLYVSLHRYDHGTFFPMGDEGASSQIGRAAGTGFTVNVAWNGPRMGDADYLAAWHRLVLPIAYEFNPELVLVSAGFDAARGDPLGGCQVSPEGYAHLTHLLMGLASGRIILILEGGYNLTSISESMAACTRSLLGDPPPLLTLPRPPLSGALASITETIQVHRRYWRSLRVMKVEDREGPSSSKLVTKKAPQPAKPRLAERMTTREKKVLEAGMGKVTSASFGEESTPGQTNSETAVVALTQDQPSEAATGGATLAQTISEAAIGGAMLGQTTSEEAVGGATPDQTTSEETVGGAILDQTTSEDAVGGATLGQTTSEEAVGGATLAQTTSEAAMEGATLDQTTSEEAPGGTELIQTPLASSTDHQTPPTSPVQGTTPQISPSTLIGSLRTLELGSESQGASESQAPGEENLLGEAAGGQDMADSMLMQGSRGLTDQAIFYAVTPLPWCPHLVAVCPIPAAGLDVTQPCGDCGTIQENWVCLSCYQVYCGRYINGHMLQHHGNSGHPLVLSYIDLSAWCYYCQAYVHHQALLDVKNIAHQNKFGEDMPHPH
Procedure, shortened: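 Two-step fluorogenic read-out: enzyme deacetylates 50 μM RHKK(Ac)AMC for 1 h at 30° C in pH 8.0 Tris buffer with BSA and 1% DMSO, then developer cleavage gives signal at Ex 360/Em 460. Enzyme: 0.3 ng/ul recombinant full-length human HDAC6, GST-tagged, Sf9-expressed.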

Human HDAC7 = target: T5, Human HDAC7 (Homo sapiens, UniProt Q8WUI4); experiment: HDAC7 biochemical assay, class IIa-specific substrate; conditions: read-out: HDAC Isoform IC50 (nM) 7
T5 construct: (a.a. 518-end) with N-terminal GST tag; GST (N); host or cells: baculovirus expression system
T5 sequence (Q8WUI4 518-952 limits assumed): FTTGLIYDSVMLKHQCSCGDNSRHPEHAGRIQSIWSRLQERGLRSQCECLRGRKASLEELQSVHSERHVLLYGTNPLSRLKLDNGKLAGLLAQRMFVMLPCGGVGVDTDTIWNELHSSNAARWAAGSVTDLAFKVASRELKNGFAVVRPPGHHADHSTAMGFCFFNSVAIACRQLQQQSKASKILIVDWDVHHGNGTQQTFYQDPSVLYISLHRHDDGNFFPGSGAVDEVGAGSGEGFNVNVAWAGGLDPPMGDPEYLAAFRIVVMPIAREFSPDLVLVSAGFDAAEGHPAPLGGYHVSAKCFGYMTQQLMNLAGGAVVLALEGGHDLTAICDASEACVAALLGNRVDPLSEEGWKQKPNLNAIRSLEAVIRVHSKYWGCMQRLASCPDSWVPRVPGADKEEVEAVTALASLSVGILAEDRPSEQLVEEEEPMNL
Procedure, shortened: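 GST-tagged HDAC7 (a.a. 518-end, baculovirus-expressed) at 0.001 ng/ul with 50 μM Boc-Lys(trifluoroacetyl)-AMC substrate, 30 min at room temperature in pH 8.0 Tris buffer with BSA, 1% DMSO final. Developer then releases AMC; fluorescence read at 360/460 nm.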

Human HDAC9 = target: T6, Human HDAC9 (Homo sapiens, UniProt Q9UKV0); experiment: HDAC9 biochemical assay, class IIa-specific substrate; conditions: read-out: HDAC Isoform IC50 (nM) 9
T6 construct: amino acids 604-1066 with C-terminal His tag; His (C); host or cells: baculovirus expression system
T6 sequence (Q9UKV0 604-1066 isoform Q9UKV0-5): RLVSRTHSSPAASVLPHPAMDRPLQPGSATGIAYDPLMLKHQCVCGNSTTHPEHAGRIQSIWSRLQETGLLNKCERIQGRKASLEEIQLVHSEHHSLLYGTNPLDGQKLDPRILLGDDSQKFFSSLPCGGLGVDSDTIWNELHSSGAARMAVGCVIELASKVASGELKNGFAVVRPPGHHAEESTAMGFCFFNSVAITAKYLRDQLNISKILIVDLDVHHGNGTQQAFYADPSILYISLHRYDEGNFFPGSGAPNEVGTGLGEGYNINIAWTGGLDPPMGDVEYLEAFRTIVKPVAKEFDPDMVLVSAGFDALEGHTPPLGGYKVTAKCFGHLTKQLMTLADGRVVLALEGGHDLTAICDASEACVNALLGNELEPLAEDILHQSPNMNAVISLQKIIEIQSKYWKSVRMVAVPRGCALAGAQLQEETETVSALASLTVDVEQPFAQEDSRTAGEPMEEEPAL
Procedure, shortened: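 HDAC9 residues 604-1066 (C-terminal His tag, baculovirus-expressed) at 0.06 ng/ul with 50 μM class IIa substrate Boc-Lys(trifluoroacetyl)-AMC in Tris-HCl pH 8.0 buffer with BSA and 1% DMSO. 30 min at room temperature, then developer added; fluorescence read at 360/460 nm Ex/Em.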

T1 sequence (Q13547 whole entry, canonical isoform): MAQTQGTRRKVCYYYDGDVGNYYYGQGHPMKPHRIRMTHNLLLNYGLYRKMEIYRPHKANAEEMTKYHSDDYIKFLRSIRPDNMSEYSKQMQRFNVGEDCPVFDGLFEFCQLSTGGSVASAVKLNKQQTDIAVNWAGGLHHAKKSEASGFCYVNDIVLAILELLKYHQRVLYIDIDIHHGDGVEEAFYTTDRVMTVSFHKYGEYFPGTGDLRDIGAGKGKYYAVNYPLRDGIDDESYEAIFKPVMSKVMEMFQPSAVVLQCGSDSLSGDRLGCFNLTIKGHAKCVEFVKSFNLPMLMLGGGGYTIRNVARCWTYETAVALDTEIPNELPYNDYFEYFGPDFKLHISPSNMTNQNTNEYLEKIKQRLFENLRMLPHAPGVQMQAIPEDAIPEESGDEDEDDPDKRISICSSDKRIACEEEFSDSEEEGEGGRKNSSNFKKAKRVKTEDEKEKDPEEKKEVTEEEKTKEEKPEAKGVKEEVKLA

## COc1cnc(N(Cc2ccc(-c3noc(C(F)(F)F)n3)s2)c2cc(C(F)(F)F)cnn2)cn1 [Example EP, N-(5-Methoxypyrazin-2-yl)-5-(trifluoromethyl)-N-({5-[5-(trifluoromethyl)-1,2,4-oxadiazol-3-yl]thiophen-2-yl}methyl)pyridazin-3-amine]
Human HDAC1
  IC50: > 10000 nM
Human HDAC4
  IC50: ≤ 10000 nM
Human HDAC5
  IC50: ≤ 10000 nM
Recombinant human HDAC6
  IC50: ≤ 10000 nM
Human HDAC7
  IC50: ≤ 10000 nM
Human HDAC9
  IC50: > 10000 nM

## CS(=O)(=O)c1cc(N(Cc2ccc(-c3noc(C(F)(F)F)n3)s2)c2cnccn2)ncn1 [Example CK, 6-Methanesulfonyl-N-(pyrazin-2-yl)-N-({5-[5-(trifluoromethyl)-1,2,4-oxadiazol-3-yl]thiophen-2-yl}methyl)pyrimidin-4-amine]
Human HDAC1
  IC50: > 10000 nM
Human HDAC4
  IC50: ≤ 1000 nM
Human HDAC5
  IC50: ≤ 10000 nM
Recombinant human HDAC6
  IC50: ≤ 10000 nM
Human HDAC7
  IC50: ≤ 10000 nM
Human HDAC9
  IC50: ≤ 10000 nM

## COc1ncc(N(Cc2ccc(-c3noc(C(F)(F)F)n3)s2)c2cnccn2)nc1OC [Example BW, 5,6-Dimethoxy-N-(pyrazin-2-yl)-N-({5-[5-(trifluoromethyl)-1,2,4-oxadiazol-3-yl]thiophen-2-yl}methyl)pyrazin-2-amine]
Human HDAC1
  IC50: > 10000 nM
Human HDAC4
  IC50: ≤ 10000 nM
Human HDAC5
  IC50: ≤ 10000 nM
Recombinant human HDAC6
  IC50: ≤ 10000 nM
Human HDAC7
  IC50: ≤ 10000 nM
Human HDAC9
  IC50: ≤ 10000 nM

## FC(F)(F)c1nc(-c2ccc(CN(c3cnccn3)c3ccc(-n4cccn4)nn3)s2)no1 [Example DM, N-(Pyrazin-2-yl)-6-(1H-pyrazol-1-yl)-N-({5-[5-(trifluoromethyl)-1,2,4-oxadiazol-3-yl]thiophen-2-yl}methyl)pyridazin-3-amine]
Human HDAC1
  IC50: ≤ 10000 nM
Human HDAC4
  IC50: ≤ 500 nM
Human HDAC5
  IC50: ≤ 1000 nM
Recombinant human HDAC6
  IC50: ≤ 1000 nM
Human HDAC7
  IC50: ≤ 1000 nM
Human HDAC9
  IC50: ≤ 1000 nM

## Cn1ccc2nc(N(Cc3ccc(-c4noc(C(F)(F)F)n4)s3)c3cnccn3)cnc21 [Example BO, N-{5-Methyl-5H-pyrrolo[2,3-b]pyrazin-2-yl}-N-({5-[5-(trifluoromethyl)-1,2,4-oxadiazol-3-yl]thiophen-2-yl}methyl)pyrazin-2-amine]
Human HDAC1
  IC50: > 10000 nM
Human HDAC4
  IC50: ≤ 10000 nM
Human HDAC5
  IC50: ≤ 10000 nM
Recombinant human HDAC6
  IC50: ≤ 10000 nM
Human HDAC7
  IC50: ≤ 10000 nM
Human HDAC9
  IC50: ≤ 10000 nM

## FC(F)(F)c1nc(-c2ccc(CN(c3cnccn3)c3cccc(N4CCOCC4)n3)s2)no1 [Example W, N-[6-(Morpholin-4-yl)pyridin-2-yl]-N-({5-[5-(trifluoromethyl)-1,2,4-oxadiazol-3-yl]thiophen-2-yl}methyl)pyrazin-2-amine]
Human HDAC1
  IC50: > 10000 nM
Human HDAC4
  IC50: ≤ 10000 nM
Human HDAC5
  IC50: ≤ 10000 nM
Recombinant human HDAC6
  IC50: ≤ 10000 nM
Human HDAC7
  IC50: ≤ 10000 nM
Human HDAC9
  IC50: ≤ 10000 nM

## COc1cnc(N(Cc2ccc(-c3noc(C(F)(F)F)n3)s2)c2cnccn2)nc1 [Example AY, 5-Methoxy-N-(pyrazin-2-yl)-N-({5-[5-(trifluoromethyl)-1,2,4-oxadiazol-3-yl]thiophen-2-yl}methyl)pyrimidin-2-amine]
Human HDAC1
  IC50: ≤ 10000 nM
Human HDAC4
  IC50: ≤ 10000 nM
Human HDAC5
  IC50: ≤ 10000 nM
Recombinant human HDAC6
  IC50: ≤ 1000 nM
Human HDAC7
  IC50: ≤ 10000 nM
Human HDAC9
  IC50: ≤ 10000 nM

## Cc1ccnc(N(Cc2ccc(-c3noc(C(F)(F)F)n3)s2)c2cnccn2)n1 [Example AT, 4-Methyl-N-(pyrazin-2-yl)-N-({5-[5-(trifluoromethyl)-1,2,4-oxadiazol-3-yl]thiophen-2-yl}methyl)pyrimidin-2-amine]
Human HDAC1
  IC50: > 10000 nM
Human HDAC4
  IC50: ≤ 10000 nM
Human HDAC5
  IC50: ≤ 10000 nM
Recombinant human HDAC6
  IC50: ≤ 10000 nM
Human HDAC7
  IC50: ≤ 10000 nM
Human HDAC9
  IC50: ≤ 10000 nM

## CN(C)C(=O)c1cncc(N(Cc2ccc(-c3noc(C(F)(F)F)n3)s2)c2cnccn2)n1 [Example BS, N,N-Dimethyl-6-[(pyrazin-2-yl)({5-[5-(trifluoromethyl)-1,2,4-oxadiazol-3-yl]thiophen-2-yl}methyl)amino]pyrazine-2-carboxamide]
Human HDAC1
  IC50: > 10000 nM
Human HDAC4
  IC50: ≤ 10000 nM
Human HDAC5
  IC50: ≤ 10000 nM
Recombinant human HDAC6
  IC50: ≤ 10000 nM
Human HDAC7
  IC50: ≤ 10000 nM
Human HDAC9
  IC50: ≤ 10000 nM
